We go through 25 compounds from US10273222B2 (CELGENE QUANTICEL RESEARCH, INC., priority 2013, dated 2019).

A value given as a limit tells only on which side of the number the result lay.

Holding throughout (type): biochemical
For assay [1], the target named is FBXL10 (Homo sapiens (Human), UniProt Q8NHM5). Briefly: FBXL10 in vitro enzyme inhibition assay (AlphaScreen). The method, boiled down: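 AlphaScreen read-out of H3K36me1 product, detected with anti-H3K36me1 antibody plus streptavidin donor and Protein A acceptor beads (final 10 μg/ml) in 50 mM HEPES pH 7.3, 10 mM NaCl, 0.005% Brij35, 5 mM EDTA, 2 mg/ml BSA. Beads incubated 2 h to overnight at room temperature; IC50 derived from AlphaScreen signal.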
On the technique in general: Alpha assays give light when donor and acceptor beads are brought close together.

Assay [2] deals with JMJD2C (Homo sapiens (Human), UniProt Q9H3R0). Briefly: JMJD2C in vitro enzyme inhibition assay (TR-FRET).
Protocol: This assay determines the ability of a test compound to inhibit Jarid1A, Jarid1B, JMJD2C, and JMJD2A demethylase activity. […] Baculovirus expressed JMJD2C (GenBank Accession #BC143571, AA 2-372) was purchased from BPS Bioscience (Cat#50105).
The ability of test compounds to inhibit the activity of JMJD2C was determined in 384-well plate format under the following reaction conditions: 0.3 nM JMJD2C, 300 nM H3K9me3-biotin labeled peptide (Anaspec cat #64360), 2 μM alpha-ketoglutaric acid in assay buffer of 50 mM HEPES, pH7.3, 0.005% Brij35, 0.5 mM TCEP, 0.2 mg/ml BSA, 50 μM sodium L-ascorbate, and 2 μM ammonium iron(II) sulfate. Reaction product was determined quantitatively by TR-FRET after the addition of detection reagent Phycolink Streptavidin-allophycocyanin (Prozyme) and Europium-anti-di-methylated histone H3 lysine 9 (H3K9me2) antibody (PerkinElmer) in the presence of 5 mM EDTA in LANCE detection buffer (PerkinElmer) at a final concentration of 50 nM and 1 nM, respectively.
The assay reaction was initiated by the following: 2 μl of the mixture of 900 nM H3K9me3-biotin labeled peptide and 6 μM alpha-ketoglutaric acid with 2 μl of 11-point serial diluted inhibitor in 3% DMSO were added to each well of the plate, followed by the addition of 2 μl of 0.9 nM JMJD2C to initiate the reaction. The reaction mixture was incubated at room temperature for 30 minutes, and terminated by the addition of 6 μl of 5 mM EDTA in LANCE detection buffer containing 100 nM Phycolink Streptavidin-allophycocyanin and 2 nM Europium-anti-H3K9me2 antibody. Plates were read by EnVisionMultilabel Reader in TR-FRET mode (excitation at 320 nm, emission at 615 nm and 665 nm) after 1 hour incubation at room temperature. A ratio was calculated (665/615) for each well and fitted to determine inhibition constant (IC50).
The target of assay [3] is Jarid1B (Homo sapiens (Human), UniProt Q9UGL1). Description: Jarid1B in vitro enzyme inhibition assay (TR-FRET).
Assay [4] has as its target Jarid1A (Homo sapiens (Human), UniProt P29375). Description: Jarid1A in vitro enzyme inhibition assay (TR-FRET). The source says: The enzymatic assay of Jarid1A activity is based upon Time Resolved-Fluorescence Resonance Energy Transfer (TR-FRET) detection.
For orientation: Time-resolved FRET reads energy transfer from a long-lived donor to a nearby acceptor.

The target of assay [5] is JMJD2A (Homo sapiens (Human), UniProt O75164). Briefly: JMJD2A in vitro enzyme inhibition assay (TR-FRET).
JMJD2A, sequence (O75164 1-350): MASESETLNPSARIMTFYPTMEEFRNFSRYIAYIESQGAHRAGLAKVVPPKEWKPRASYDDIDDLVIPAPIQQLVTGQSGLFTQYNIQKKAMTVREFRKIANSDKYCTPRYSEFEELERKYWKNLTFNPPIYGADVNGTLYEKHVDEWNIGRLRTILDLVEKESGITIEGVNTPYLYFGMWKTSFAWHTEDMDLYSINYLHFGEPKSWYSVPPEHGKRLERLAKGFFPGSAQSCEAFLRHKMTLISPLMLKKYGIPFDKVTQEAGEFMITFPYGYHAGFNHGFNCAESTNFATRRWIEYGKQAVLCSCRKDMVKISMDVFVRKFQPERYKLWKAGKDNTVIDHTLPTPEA
Protocol: This assay determines the ability of a test compound to inhibit Jarid1A, Jarid1B, JMJD2C, and JMJD2A demethylase activity. […] Baculovirus expressed JMJD2A (GenBank Accession #NM_014663, AA 1-350) was purchased from BPS Bioscience (Cat#50123).
The ability of test compounds to inhibit the activity of JMJD2A was determined in 384-well plate format under the following reaction conditions: 2 nM JMJD2A, 300 nM H3K9me3-biotin labeled peptide (Anaspec cat #64360), 2 μM alpha-ketoglutaric acid in assay buffer of 50 mM HEPES, pH7.3, 0.005% Brij35, 0.5 mM TCEP, 0.2 mg/ml BSA, 50 μM sodium L-ascorbate, and 2 μM ammonium iron(II) sulfate. Reaction product was determined quantitatively by TR-FRET after the addition of detection reagent Phycolink Streptavidin-allophycocyanin (Prozyme) and Europium-anti-di-methylated histone H3 lysine 9 (H3K9me2) antibody (PerkinElmer) in the presence of 5 mM EDTA in LANCE detection buffer (PerkinElmer) at a final concentration of 50 nM and 1 nM, respectively.
The assay reaction was initiated by the following: 2 μl of the mixture of 900 nM H3K9me3-biotin labeled peptide and 6 μM alpha-ketoglutaric acid with 2 μl of 11-point serial diluted inhibitor in 3% DMSO were added to each well of plate, followed by the addition of 2 μl of 6 nM JMJD2A to initiate the reaction. The reaction mixture was incubated at room temperature for 30 minutes, and terminated by the addition of 6 μl of 5 mM EDTA in LANCE detection buffer containing 100 nM Phycolink Streptavidin-allophycocyanin and 2 nM Europium-anti-H3K9me2 antibody. Plates were read by EnVisionMultilabel Reader in TR-FRET mode (excitation at 320 nm, emission at 615 nm and 665 nm) after 1 hour incubation at room temperature. A ratio was calculated (665/615) for each well and fitted to determine inhibition constant (IC50).

Jarid1A, sequence (P29375 1-1090): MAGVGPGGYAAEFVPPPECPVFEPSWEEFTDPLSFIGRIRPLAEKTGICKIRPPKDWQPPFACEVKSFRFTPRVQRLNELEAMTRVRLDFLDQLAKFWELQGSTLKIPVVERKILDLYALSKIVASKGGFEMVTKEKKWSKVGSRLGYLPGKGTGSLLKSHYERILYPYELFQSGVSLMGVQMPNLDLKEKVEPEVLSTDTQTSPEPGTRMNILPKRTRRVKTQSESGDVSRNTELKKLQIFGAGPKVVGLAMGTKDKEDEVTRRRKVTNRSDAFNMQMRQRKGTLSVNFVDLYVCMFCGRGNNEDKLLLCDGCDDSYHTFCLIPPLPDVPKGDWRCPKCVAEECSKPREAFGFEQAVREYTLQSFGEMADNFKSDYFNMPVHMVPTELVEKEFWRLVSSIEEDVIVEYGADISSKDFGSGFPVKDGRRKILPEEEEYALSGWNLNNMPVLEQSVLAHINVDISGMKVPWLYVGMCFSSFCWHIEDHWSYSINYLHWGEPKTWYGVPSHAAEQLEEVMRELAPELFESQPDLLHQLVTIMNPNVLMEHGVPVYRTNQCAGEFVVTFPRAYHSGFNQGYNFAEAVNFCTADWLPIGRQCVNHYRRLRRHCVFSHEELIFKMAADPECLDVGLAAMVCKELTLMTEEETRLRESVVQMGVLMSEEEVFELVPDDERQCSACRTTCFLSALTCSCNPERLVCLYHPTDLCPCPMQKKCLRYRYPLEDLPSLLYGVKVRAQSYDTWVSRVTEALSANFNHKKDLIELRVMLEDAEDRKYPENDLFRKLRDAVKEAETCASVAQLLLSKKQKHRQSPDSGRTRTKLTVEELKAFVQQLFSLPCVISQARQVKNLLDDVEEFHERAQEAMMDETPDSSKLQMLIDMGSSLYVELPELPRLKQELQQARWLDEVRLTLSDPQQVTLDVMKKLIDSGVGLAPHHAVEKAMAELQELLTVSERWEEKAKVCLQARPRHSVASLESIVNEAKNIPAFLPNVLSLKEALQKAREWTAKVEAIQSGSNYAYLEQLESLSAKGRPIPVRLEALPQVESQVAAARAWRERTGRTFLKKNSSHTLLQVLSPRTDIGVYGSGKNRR
JMJD2C, sequence (Q9H3R0 2-372): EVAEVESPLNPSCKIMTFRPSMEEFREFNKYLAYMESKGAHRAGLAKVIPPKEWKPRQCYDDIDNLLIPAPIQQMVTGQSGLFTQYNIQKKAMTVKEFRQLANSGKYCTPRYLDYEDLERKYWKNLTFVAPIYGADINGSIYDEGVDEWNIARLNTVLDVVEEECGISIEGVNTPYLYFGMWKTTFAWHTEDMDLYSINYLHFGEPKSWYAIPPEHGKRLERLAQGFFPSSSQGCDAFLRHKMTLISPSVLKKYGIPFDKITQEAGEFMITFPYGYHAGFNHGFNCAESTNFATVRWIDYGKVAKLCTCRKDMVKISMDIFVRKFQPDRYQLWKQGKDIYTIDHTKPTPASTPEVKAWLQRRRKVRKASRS
FBXL10, sequence (Q8NHM5 1-650): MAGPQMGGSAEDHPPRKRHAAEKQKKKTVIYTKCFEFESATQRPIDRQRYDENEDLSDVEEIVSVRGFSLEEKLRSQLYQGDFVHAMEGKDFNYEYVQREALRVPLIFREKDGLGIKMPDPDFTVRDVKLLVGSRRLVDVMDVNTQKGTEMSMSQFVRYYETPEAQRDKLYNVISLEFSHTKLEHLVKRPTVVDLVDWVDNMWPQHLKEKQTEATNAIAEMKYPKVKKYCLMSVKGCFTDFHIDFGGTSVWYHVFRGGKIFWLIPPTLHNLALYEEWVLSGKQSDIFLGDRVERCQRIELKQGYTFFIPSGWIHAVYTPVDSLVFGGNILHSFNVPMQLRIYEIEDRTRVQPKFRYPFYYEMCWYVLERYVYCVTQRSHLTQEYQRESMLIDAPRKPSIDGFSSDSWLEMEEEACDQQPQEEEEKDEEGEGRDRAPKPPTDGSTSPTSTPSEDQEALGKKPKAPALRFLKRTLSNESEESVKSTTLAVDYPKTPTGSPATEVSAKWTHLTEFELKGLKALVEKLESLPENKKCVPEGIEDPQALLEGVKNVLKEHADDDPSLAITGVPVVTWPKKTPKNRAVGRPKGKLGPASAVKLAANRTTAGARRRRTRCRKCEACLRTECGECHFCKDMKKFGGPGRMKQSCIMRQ
Jarid1B, sequence (Q9UGL1 2-751): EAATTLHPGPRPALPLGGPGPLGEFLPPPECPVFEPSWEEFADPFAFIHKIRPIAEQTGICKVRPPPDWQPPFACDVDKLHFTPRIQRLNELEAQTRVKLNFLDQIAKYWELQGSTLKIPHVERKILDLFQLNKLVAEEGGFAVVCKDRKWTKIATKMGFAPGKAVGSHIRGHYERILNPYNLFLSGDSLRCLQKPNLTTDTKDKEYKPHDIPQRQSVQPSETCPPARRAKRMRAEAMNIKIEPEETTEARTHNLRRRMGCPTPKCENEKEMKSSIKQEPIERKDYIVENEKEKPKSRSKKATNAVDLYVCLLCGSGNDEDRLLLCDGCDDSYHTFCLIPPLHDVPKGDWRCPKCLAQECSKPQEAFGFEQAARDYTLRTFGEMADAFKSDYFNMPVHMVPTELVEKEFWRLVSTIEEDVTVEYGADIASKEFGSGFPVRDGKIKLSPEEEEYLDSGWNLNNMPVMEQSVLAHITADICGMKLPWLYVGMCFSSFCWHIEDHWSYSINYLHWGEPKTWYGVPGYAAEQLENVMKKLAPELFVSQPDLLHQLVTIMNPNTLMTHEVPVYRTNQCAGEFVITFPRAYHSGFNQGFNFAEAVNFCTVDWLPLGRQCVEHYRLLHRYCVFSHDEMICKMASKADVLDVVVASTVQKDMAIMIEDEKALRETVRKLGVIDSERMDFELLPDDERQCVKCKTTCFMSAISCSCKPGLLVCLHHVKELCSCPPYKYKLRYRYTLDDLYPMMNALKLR

For `CN(C)CCOCCn1cnc(-c2cc(C(=O)O)ccn2)c1` [Example 48, 2-(1-{2-[2-(dimethylamino)ethoxy]ethyl}-1H-imidazol-4-yl)pyridine-4-carboxylic acid], the half-inhibitory concentration (IC50) is 100 to 1000 nM in assay [1]; not above 100 nM in assay [2]; not above 100 nM in assay [3]; not above 100 nM in assay [4]; not above 0.1 µM in assay [5].
Regarding `O=C(O)c1ccnc(-c2cn(C3CCc4c(F)cccc43)cn2)c1` (stereo not drawn) [Example 110, 2-[1-(4-fluoro-2,3-dihydro-1H-inden-1-yl)imidazol-4-yl]pyridine-4-carboxylic acid], the IC50 was not above 100 nM in assay [1]; 100 to 1000 nM in assay [2]; not above 100 nM in assay [3]; not above 100 nM in assay [4]; 0.1 to 1 µM in assay [5].
As for `CN(CCn1cnc(-c2cc(C(=O)O)ccn2)c1)Cc1ccc(F)cc1` [Example 38, 2-[1-[2-[(4-fluorophenyl)methyl-methylamino]ethyl]imidazol-4-yl]pyridine-4-carboxylic acid], the IC50 is not above 100 nM in assay [1]; not above 100 nM in assay [2]; not above 100 nM in assay [3]; not above 100 nM in assay [4]; not above 0.1 µM in assay [5].
For the compound `CN(CCn1cnc(-c2cc(C(=O)NC#N)ccn2)c1)CC1CC1` [Example 64, N-cyano-2-(1-{2-[(cyclopropylmethyl)(methyl)amino]ethyl}-1H-imidazol-4-yl)pyridine-4-carboxamide], the IC50 in assay [1] was more than 10000 nM; in assay [2], 100 to 1000 nM; in assay [3], not above 100 nM; in assay [4], not above 100 nM; in assay [5] it was more than 10 µM.
Regarding `FC(F)(F)c1cccc(Cn2cnc(-c3cc(-c4nn[nH]n4)ccn3)c2)c1Cl` [Example 154, 2-[1-[[2-chloro-3-(trifluoromethyl)phenyl]methyl]imidazol-4-yl]-4-(2H-tetrazol-5-yl)pyridine], the IC50 in assay [1] was not above 100 nM; in assay [2] it was 1000 to 10000 nM; in assay [3], not above 100 nM; in assay [4] it was 100 to 1000 nM; in assay [5] it was more than 10 µM.
Regarding `CN(CCn1cnc(-c2cc(C(=O)O)ccn2)c1)CC1CC1` [Example 59, 2-(1-{2-[(cyclopropylmethyl)(methyl)amino]ethyl}-1H-imidazol-4-yl)pyridine-4-carboxylic acid], the IC50 in assay [1] was 100 to 1000 nM; in assay [2] it was not above 100 nM; in assay [3], not above 100 nM; in assay [4], not above 100 nM; in assay [5] it was not above 0.1 µM.
Consider `Clc1ccccc1CCn1cnc(-c2cc(-c3nn[nH]n3)ccn2)c1` [Example 141, 2-[1-[2-(2-chlorophenyl)ethyl]imidazol-4-yl]-4-(2H-tetrazol-5-yl)pyridine], for which the IC50 in assay [1] was not above 100 nM; in assay [2], 1000 to 10000 nM; in assay [3] it was 100 to 1000 nM; in assay [4] it was 100 to 1000 nM; in assay [5] it was more than 10 µM.
On to `c1ccc2c(c1)CCCC2Cn1cnc(-c2cc(-c3nn[nH]n3)ccn2)c1` (stereo not drawn) [Example 143, 2-[1-(1,2,3,4-tetrahydronaphthalen-1-ylmethyl)imidazol-4-yl]-4-(2H-tetrazol-5-yl)pyridine], for which the IC50 was not above 100 nM in assay [1], 1000 to 10000 nM in assay [2], 100 to 1000 nM in assay [3] and more than 10 µM in assay [5].
With `c1cc(-c2nn[nH]n2)cc(-c2cn(CCN3CCCC3)cn2)n1` [Example 63, 2-{1-[2-(pyrrolidin-1-yl)ethyl]-1H-imidazol-4-yl}-4-(2H-tetrazol-5-yl)pyridine], the IC50 is 100 to 1000 nM in assay [1]; 100 to 1000 nM in assay [2]; not above 100 nM in assay [3]; not above 100 nM in assay [4]; 1 to 10 µM in assay [5].
In the case of `Cn1cnc(-c2cc(-c3nn[nH]n3)ccn2)c1-c1ccc(F)cc1OCC1CC1` [Example 150, 2-[5-[2-(cyclopropylmethoxy)-4-fluorophenyl]-1-methylimidazol-4-yl]-4-(2H-tetrazol-5-yl)pyridine], the half-inhibitory concentration (IC50) in assay [1] is not above 100 nM; in assay [2] it was 1000 to 10000 nM; in assay [3], not above 100 nM; in assay [4], 100 to 1000 nM; in assay [5], more than 10 µM.
Turning to `CCC(c1ccccc1)n1cnc(-c2cc(C(=O)O)ccn2)c1` (stereo not drawn) [Example 107, 2-[1-(1-phenylpropyl)imidazol-4-yl]pyridine-4-carboxylic acid], the IC50 in assay [1] is not above 100 nM; in assay [2] it was 100 to 1000 nM; in assay [3], not above 100 nM; in assay [4], not above 100 nM; in assay [5] it was not above 0.1 µM.
As to `CCC(c1ccccc1)n1cnc(-c2cc(-c3nn[nH]n3)ccn2)c1` (stereo not drawn) [Example 144, 2-[1-(1-phenylpropyl)imidazol-4-yl]-4-(2H-tetrazol-5-yl)pyridine], the IC50 is not above 100 nM in assay [1]; 1000 to 10000 nM in assay [2]; not above 100 nM in assay [3]; 100 to 1000 nM in assay [4]; more than 10 µM in assay [5].
With `c1ccc2c(CCn3cnc(-c4cc(-c5nn[nH]n5)ccn4)c3)cccc2c1` [Example 142, 2-[1-(2-naphthalen-1-ylethyl)imidazol-4-yl]-4-(2H-tetrazol-5-yl)pyridine], the 50% inhibitory concentration (IC50) in assay [1] is not above 100 nM; in assay [2], 1000 to 10000 nM; in assay [3], not above 100 nM; in assay [5], more than 10 µM.
Take `O=C(O)c1ccnc(-c2cn(CCn3cccn3)cn2)c1` [Example 46, 2-{1-[2-(1H-pyrazol-1-yl)ethyl]-1H-imidazol-4-yl}pyridine-4-carboxylic acid]: the half-inhibitory concentration (IC50) in assay [1] was 100 to 1000 nM; in assay [2], 1000 to 10000 nM; in assay [3] it was 100 to 1000 nM; in assay [4], 100 to 1000 nM.
For the compound `O=C(O)c1ccnc(-c2cn(CCNCC3CC(F)(F)C3)cn2)c1` [Example 73, 2-[1-[2-[(3,3-difluorocyclobutyl)methylamino]ethyl]imidazol-4-yl]pyridine-4-carboxylic acid], the 50% inhibitory concentration (IC50) in assay [1], in assay [2], in assay [3] and in assay [4] was not above 100 nM in each case.
With `CCc1ccccc1CNCCn1cnc(-c2cc(C(=O)O)ccn2)c1` [Example 80, 2-[1-[2-[(2-ethylphenyl)methylamino]ethyl]imidazol-4-yl]pyridine-4-carboxylic acid], the IC50 in assay [1], in assay [2], in assay [3] and in assay [4] was not above 100 nM throughout.
Take `O=C(O)c1ccnc(-c2cn(CCN3Cc4ccc(Cl)cc4C3)cn2)c1` [Example 82, 2-[1-[2-(5-chloro-1,3-dihydroisoindol-2-yl)ethyl]imidazol-4-yl]pyridine-4-carboxylic acid]: the IC50 in assay [1], in assay [2], in assay [3] and in assay [4] was not above 100 nM in each case.
On to `Cn1cnc(-c2cc(C(=O)O)ccn2)c1-c1cccc(F)c1` [Example 24, 2-[5-(3-fluorophenyl)-1-methyl-1H-imidazol-4-yl]pyridine-4-carboxylic acid], for which the IC50 was not above 100 nM in assay [1], 100 to 1000 nM in assay [2], not above 100 nM in assay [3] and not above 100 nM in assay [4].
On to `CN1CCC(n2cnc(-c3cc(C(=O)O)ccn3)c2)CC1` [Example 49, 2-[1-(1-methylpiperidin-4-yl)-1H-imidazol-4-yl]pyridine-4-carboxylic acid], for which the IC50 in assay [1] was 100 to 1000 nM; in assay [2], not above 100 nM; in assay [3] it was not above 100 nM; in assay [4], not above 100 nM.
Consider `CCc1ccc(-c2c(-c3cc(C(=O)O)ccn3)ncn2C)cc1` [Example 5, 2-[5-(4-ethylphenyl)-1-methyl-1H-imidazol-4-yl]pyridine-4-carboxylic acid], for which the IC50 in assay [1] is 100 to 1000 nM; in assay [2], 1000 to 10000 nM; in assay [3] it was not above 100 nM; in assay [4], not above 100 nM.
For the compound `COc1cc(-c2c(-c3cc(C(=O)O)ccn3)ncn2C)ccc1Cl` [Example 30, 2-[5-(4-chloro-3-methoxyphenyl)-1-methyl-1H-imidazol-4-yl]pyridine-4-carboxylic acid], the IC50 in assay [1] was not above 100 nM; in assay [2], 100 to 1000 nM; in assay [3], not above 100 nM; in assay [4], not above 100 nM.
Take `Cn1cnc(-c2cc(C(=O)O)ccn2)c1Br` [Example 2, 2-(5-bromo-1-methyl-1H-imidazol-4-yl)pyridine-4-carboxylic acid]: the IC50 in assay [1] is 100 to 1000 nM; in assay [2], 100 to 1000 nM; in assay [3], not above 100 nM; in assay [4] it was not above 100 nM.
Turning to `O=C(O)c1ccnc(-c2cn(CCN3Cc4ccc(F)cc4C3)cn2)c1` [Example 79, 2-[1-[2-(5-fluoro-1,3-dihydroisoindol-2-yl)ethyl]imidazol-4-yl]pyridine-4-carboxylic acid], the IC50 in assay [1], in assay [2], in assay [3] and in assay [4] was not above 100 nM in each case.
`O=C(O)c1ccnc(-c2cn(CCN(Cc3ccc(Cl)cc3)C3CC3)cn2)c1` [Example 85, 2-[1-[2-[(4-chlorophenyl)methyl-cyclopropylamino]ethyl]imidazol-4-yl]pyridine-4-carboxylic acid]: the IC50 in assay [1] is not above 100 nM; in assay [2], 100 to 1000 nM; in assay [3], not above 100 nM; in assay [4], not above 100 nM.
`Cn1cnc(-c2cc(C(=O)O)ccn2)c1-c1ccc(Cl)cc1Cl` [Example 33, 2-[5-(2,4-dichlorophenyl)-1-methyl-1H-imidazol-4-yl]pyridine-4-carboxylic acid]: the IC50 in assay [1] was not above 100 nM; in assay [2], 100 to 1000 nM; in assay [3], not above 100 nM; in assay [4], not above 100 nM.

The IC50 is the point on the concentration scale where inhibition reaches its midpoint. Read a high IC50 as a need for much substance.
